The record followed here is patent US10952992B2, “Methods of treating intraocular pressure with activators of Tie-2” (Aerpio Pharmaceuticals, Inc., priority 2015, dated 2021).

In the assay the test system is intraocular pressure, study eye/fellow eye. Kind of assay: Intraocular pressure with Compound 1 + sham, Compound 1 + RBZ or placebo + RBZ, months 1-3 (FIG. 2, TABLE 1). It is filed as in vivo, human. How it is done:
The difference in IOP was determined relative to a pre-treatment baseline (Base) at months 1, 2, and 3 (M1-M3). Intraocular pressure was determined in the study eye in millimeters of mercury (mmHg). […] The difference in IOP was determined relative to a pre-treatment Baseline at Months 1, 2, and 3. Intraocular pressure was determined in the study eye/fellow eye in mmHg.

On to “placebo + RBZ: a placebo combined with RBZ (ranibizumab)”, for which the “IOP, fellow eye” value stood at 15.8 mmHg (Baseline (pre-treatment)), 15.5 mmHg (Month 1), 15.5 mmHg (Month 2) and 15.7 mmHg (Month 3). For the same substance, the “IOP, study eye” value worked out at 15.2 mmHg (Baseline (pre-treatment)), 15.0 mmHg (Month 1), 15.0 mmHg (Month 2) and 15.3 mmHg (Month 3).
